Experimental data taken from patent publication US20260250318A1, “COMPOSITIONS AND METHODS FOR CROSSING THE BLOOD BRAIN BARRIER” (VOYAGER THERAPEUTICS, INC., priority 2022, published 2026).

Tests used:
Conditions in all cases: synthetic library passage 3, intravenous, relative to wild-type AAV9
brain [1] = experiment: NGS fold enrichment of synthetic library (passage 3) in C57Bl/6 mice, first cross-species screen; format: in vivo
Method in brief: (§1)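 Fold enrichment versus wild-type AAV9 was derived by NGS of RT-PCR-amplified RNA from nervous tissue, collected e.g. 28 days after IV dosing […]. The library (passage 3) was given to two NHPs aged 2-4 years and to 6-8-week BALB/c and C57Bl/6 mice (n=3 each).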

brain [2] = experiment: NGS fold enrichment of synthetic library (passage 3) in BALB/c mice, first cross-species screen; format: in vivo
Method in brief: as §1

[3] = system: brain, spinal cord, and DRG of the NHPs; experiment: NGS fold enrichment of synthetic library (passage 3) in NHPs, first cross-species screen; format: in vivo, cynomolgus macaques (Macaca fascicularis)
Method in brief: as §1

[4] = RNA from brain of C57Bl/6 mice, NGS
[5] = RNA from brain of BALB/c mice, NGS
[6] = RNA from spinal cord of NHPs, NGS

Row | Sequence | Fold enrichment over AAV9 in the brain of Mice (C57Bl/6) (brain [1]; RNA NGS, brain of C57Bl/6 mice) | Fold enrichment over AAV9 in the brain of Mice (BALB/c) (brain [2]; RNA NGS, brain of BALB/c mice) | Fold enrichment over AAV9 in the brain of NHPs ([3]; RNA NGS, brain of NHPs) | Fold enrichment over AAV9 in the spinal cord of NHPs ([3]; RNA NGS, spinal cord of NHPs) | Fold enrichment over AAV9 in the brain of Mice (C57Bl/6) (brain [1]; [4]) | Fold enrichment over AAV9 in the brain of Mice (BALB/c) (brain [2]; [5]) | Fold enrichment over AAV9 in the brain of NHPs ([3]; RNA from brain of NHPs, NGS) | Fold enrichment over AAV9 in the spinal cord of NHPs [3, 6]
1 | GSGQNQHYSLHKQT | 1.485 fold | 1.273 fold | 1.563 fold | 3.399 fold |  |  |  | 
2 | GSGQNQKGMQPNQT |  |  |  |  | 0.775 fold | 1.059 fold | 1.326 fold | 3.139 fold
3 | GSGQNQKILTLDQT | 0.291 fold | 0.314 fold | 1.080 fold | 0.371 fold |  |  |  | 
4 | GSGQNQQALGSQRT | 1.419 fold | 0.562 fold | 1.695 fold | 1.934 fold |  |  |  | 
5 | GSGQNQQALHNPHT | 0.638 fold | 0.213 fold | 1.553 fold | 0.664 fold |  |  |  | 
6 | GSGQNQQAPHKKET |  |  |  |  | 0.994 fold | 0.689 fold | 1.180 fold | 0.598 fold
7 | GSGQNQQARPLELT | 0.389 fold | 0.252 fold | 1.061 fold | 0.059 fold |  |  |  | 
8 | GSGQNQQASGRQQT | 0.943 fold | 0.991 fold | 1.458 fold | 3.179 fold |  |  |  | 
9 | GSGQNQQASLAMRT | 2.066 fold | 1.638 fold | 1.910 fold | 3.577 fold |  |  |  | 
10 | GSGQNQQASLPSRT | 0.930 fold | 0.673 fold | 1.456 fold | 0.389 fold |  |  |  | 
11 | GSGQNQQGTGVSHT |  |  |  |  | 1.417 fold | 0.749 fold | 1.371 fold | 4.295 fold
12 | GSGQNQQGTLLHQT | 1.347 fold | 1.303 fold | 1.728 fold | 2.065 fold |  |  |  | 
13 | GSGQNQQHANLNQT | 0.416 fold | 0.544 fold | 1.410 fold | 0.094 fold |  |  |  | 
14 | GSGQNQQHASSNNT |  |  |  |  | 0.789 fold | 0.896 fold | 1.166 fold | 7.155 fold
15 | GSGQNQQHHSSHTT |  |  |  |  | 0.957 fold | 0.452 fold | 1.328 fold | 2.158 fold
16 | GSGQNQQHPSTQQT |  |  |  |  | 1.017 fold | 0.680 fold | 1.205 fold | 1.552 fold
17 | GSGQNQQHSLSSQT |  |  |  |  | 0.700 fold | 0.730 fold | 1.150 fold | 3.844 fold
18 | GSGQNQQHSSKATT |  |  |  |  | 1.350 fold | 1.401 fold | 1.345 fold | 12.248 fold
19 | GSGQNQQHSSSHLT | 1.091 fold | 0.859 fold | 1.581 fold | 2.782 fold |  |  |  | 
20 | GSGQNQQHVSSPRT | 1.847 fold | 0.938 fold | 2.176 fold | 1.279 fold |  |  |  | 

Row | Sequence | Fold enrichment over AAV9 in the brain of Mice (C57Bl/6) (brain [1]; RNA NGS, brain of C57Bl/6 mice) | Fold enrichment over AAV9 in the brain of Mice (BALB/c) (brain [2]; RNA NGS, brain of BALB/c mice) | Fold enrichment over AAV9 in the brain of NHPs ([3]; RNA NGS, brain of NHPs) | Fold enrichment over AAV9 in the spinal cord of NHPs ([3]; RNA NGS, spinal cord of NHPs) | Fold enrichment over AAV9 in the brain of Mice (C57Bl/6) (brain [1]; [4]) | Fold enrichment over AAV9 in the brain of Mice (BALB/c) (brain [2]; [5]) | Fold enrichment over AAV9 in the brain of NHPs ([3]; RNA from brain of NHPs, NGS) | Fold enrichment over AAV9 in the spinal cord of NHPs [3, 6]
21 | GSGQNQQHYGSQGT |  |  |  |  | 1.345 fold | 0.379 fold | 1.189 fold | 0.453 fold
22 | GSGQNQQIGESRMT |  |  |  |  | 0.890 fold | 0.453 fold | 1.279 fold | 0.103 fold
23 | GSGQNQQIISTKIT |  |  |  |  | 0.951 fold | 0.710 fold | 1.275 fold | 0.000 fold
24 | GSGQNQQINHRSPT |  |  |  |  | 0.259 fold | 0.220 fold | 1.173 fold | 0.748 fold
25 | GSGQNQQIPHVHQT |  |  |  |  | 0.576 fold | 0.218 fold | 1.409 fold | 0.768 fold
26 | GSGQNQQKLSSMST |  |  |  |  | 1.160 fold | 1.052 fold | 1.286 fold | 1.586 fold
27 | GSGQNQQKQNHGNT | 1.538 fold | 1.340 fold | 1.695 fold | 5.349 fold |  |  |  | 
28 | GSGQNQQKSLNGNT |  |  |  |  | 0.586 fold | 0.851 fold | 1.275 fold | 8.573 fold
29 | GSGQNQQKVSPLLT |  |  |  |  | 0.755 fold | 0.806 fold | 1.314 fold | 1.602 fold
30 | GSGQNQQLAITLGT | 0.877 fold | 0.143 fold | 1.011 fold | 0.000 fold |  |  |  | 
31 | GSGQNQQLANMVTT | 1.253 fold | 0.987 fold | 1.014 fold | 1.739 fold |  |  |  | 
32 | GSGQNQQLGSRQCT | 0.987 fold | 0.407 fold | 1.102 fold | 0.183 fold |  |  |  | 
33 | GSGQNQQLKENRST | 1.149 fold | 1.118 fold | 2.765 fold | 0.062 fold |  |  |  | 
34 | GSGQNQQLKNSTST |  |  |  |  | 1.063 fold | 0.538 fold | 1.235 fold | 1.703 fold
35 | GSGQNQQLKSSAQT | 0.908 fold | 0.716 fold | 1.891 fold | 1.197 fold |  |  |  | 
36 | GSGQNQQLPHSNLT | 0.442 fold | 0.283 fold | 1.521 fold | 1.838 fold |  |  |  | 
37 | GSGQNQQLQTLIRT | 0.813 fold | 0.514 fold | 1.538 fold | 1.425 fold |  |  |  | 
38 | GSGQNQQLSAKSST | 1.224 fold | 1.115 fold | 1.809 fold | 1.567 fold |  |  |  | 
39 | GSGQNQQLSGKSVT | 1.276 fold | 0.930 fold | 1.070 fold | 1.524 fold |  |  |  | 
40 | GSGQNQQLSRDAST | 1.877 fold | 0.611 fold | 1.754 fold | 3.716 fold |  |  |  | 
